In the experiment the target is recombinant human AMPK complex 1 (containing α1β1γ1) (Homo sapiens, UniProt Q13131+Q9Y478). Nature of the experiment: […] (in vitro AMPK activation assay). The experiment is classed as biochemical. To be noted: for Emax: basal activity subtracted; for EC50: read-out: EC50. As for the experimental part:
Recombinant viruses were generated by cotransfection of AMPK/pBacPak9 clones with Baculogold baculovirus DNA (Pharmingen) in spodoptera frugiperda 21 cells according to the manufacturer's instructions. Each round of virus amplification was performed for 5 days in Grace's medium containing 10% serum. Virus that had been subjected to three rounds of amplification was used for all protein production procedures. To express the AMPK complex, sf21 cells were adapted to serum free medium (SF900 II, Invitrogen) by sequential dilution from serum containing stocks into SF900 II medium and maintained in shaker flasks at 90 rpm at 27° C. The recombinant AMPK enzyme complex was produced by triple infection, one recombinant virus for each of the subunits, in sf21 cells under serum free conditions. […] Cells were harvested by centrifugation at 10,000×g for 15 minutes after 72 hours of infection with viruses. The insect cell pellet from 2 liters of culture was resuspended in 50 ml lysis buffer (20 mM Tris-HCl, 50 mM NaCl, 50 mM NaF, 30 mM Na PPi, 0.25 M sucrose, 10 mM ZnCl2, 2 mM DTT, 0.4 mg/ml digitonin) and subjected to two cycles of freeze-thaw lysis in a dry-ice ethanol bath. Insoluble material was removed by centrifugation at 10,000×g and the supernatant was fractionated with use of polyethylene glycol (PEG).
The total in vitro AMPK activation assay volume is 50 μl in a 96-well plate. […] The reaction was initiated with addition of the enzyme. After 30-minute incubation at 30° C., the reaction was stopped by addition of 80 μl 1% H3PO4. Aliquots (100 μl) were transferred to 96-well MultiScreen plates (MAPHNOB50; Millipore Corp., Bedford, Mass., USA). The plate was washed three times with 1% H3PO4 followed by detection in a Top-count. The counts per minute from the basal activity (the reaction without activator) was subtracted from each well and the data were expressed as % maximum AMP activation followed by EC50 calculation.

[1] abbreviates: recombinant human AMPK complex 1 (α1β1γ1), read-out: % Maximum AMP Activation of human AMPK Complex 1.
Where [2] appears, read: read-out: % Maximum AMP Activation of human AMPK Complex 1, recombinant human AMPK complex 1 (α1β1γ1).
The mark [3] stands for this setting: recombinant human AMPK complex 1 (α1β1γ1).

Counter-ions that a name gives are not always drawn. Like-named read-outs stand apart in the source and are kept apart here.

Chain of recombinant human AMPK complex 1 (containing α1β1γ1) (Q13131 whole entry): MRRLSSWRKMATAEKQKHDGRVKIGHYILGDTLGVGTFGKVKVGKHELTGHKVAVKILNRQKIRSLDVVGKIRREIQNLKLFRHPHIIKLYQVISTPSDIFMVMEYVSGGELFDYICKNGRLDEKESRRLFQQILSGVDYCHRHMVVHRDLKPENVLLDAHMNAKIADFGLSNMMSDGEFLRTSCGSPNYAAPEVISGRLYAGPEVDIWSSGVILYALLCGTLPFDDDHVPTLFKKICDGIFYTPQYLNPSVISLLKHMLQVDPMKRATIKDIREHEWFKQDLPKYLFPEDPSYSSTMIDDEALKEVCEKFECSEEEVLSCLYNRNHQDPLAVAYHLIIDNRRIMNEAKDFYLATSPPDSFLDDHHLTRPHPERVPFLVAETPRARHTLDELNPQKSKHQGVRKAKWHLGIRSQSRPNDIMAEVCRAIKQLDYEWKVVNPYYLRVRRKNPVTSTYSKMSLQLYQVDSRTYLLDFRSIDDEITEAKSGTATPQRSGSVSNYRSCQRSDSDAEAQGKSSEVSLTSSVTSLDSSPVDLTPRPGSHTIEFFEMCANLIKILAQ
Chain of recombinant human AMPK complex 1 (containing α1β1γ1) (Q9Y478 whole entry): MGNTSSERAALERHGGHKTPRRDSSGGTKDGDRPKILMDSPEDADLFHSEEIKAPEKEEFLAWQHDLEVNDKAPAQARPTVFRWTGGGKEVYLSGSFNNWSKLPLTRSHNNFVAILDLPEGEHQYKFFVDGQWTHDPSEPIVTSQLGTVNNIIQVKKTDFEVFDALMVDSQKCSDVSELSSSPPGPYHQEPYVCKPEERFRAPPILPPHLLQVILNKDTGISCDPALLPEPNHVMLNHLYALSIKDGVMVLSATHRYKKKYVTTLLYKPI
Chain of recombinant human AMPK complex 1 (containing α1β1γ1) (P54619 whole entry partner): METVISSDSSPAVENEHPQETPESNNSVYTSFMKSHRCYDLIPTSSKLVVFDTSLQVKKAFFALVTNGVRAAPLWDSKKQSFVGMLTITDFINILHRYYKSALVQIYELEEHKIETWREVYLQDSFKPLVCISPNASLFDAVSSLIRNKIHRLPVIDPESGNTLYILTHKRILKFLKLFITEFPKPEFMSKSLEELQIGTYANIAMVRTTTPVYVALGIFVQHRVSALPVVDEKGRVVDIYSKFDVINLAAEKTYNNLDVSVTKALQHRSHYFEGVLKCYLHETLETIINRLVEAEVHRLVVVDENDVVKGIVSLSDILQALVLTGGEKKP

`O=C(O)c1cncc(Oc2nc3cc(-c4ccc(-c5ccccc5)cc4)c(Cl)cc3[nH]2)c1` [Example 34, 5-(5-Biphenyl-4-yl-6-chloro-1H-benzoimidazol-2-yloxy)-nicotinic acid]: under setting [1], the Emax was more than 80%.
As to `O=C(O)c1cc(O)cc(Oc2nc3cc(-c4ccc(-c5ccccc5)cc4)c(Cl)cc3[nH]2)c1` [Example 35, 3-(5-Biphenyl-4-yl-6-chloro-1H-benzoimidazol-2-yloxy)-5-hydroxy-benzoic acid], the Emax under setting [1] is more than 80%.
Still for that read-out and setting: then `O=C(O)c1ccc(Oc2nc3cc(-c4ccc(-c5ccccc5)cc4)c(Cl)cc3[nH]2)cc1C(=O)O` [Example 36, 4-(5-Biphenyl-4-yl-6-chloro-1H-benzoimidazol-2-yloxy)-phthalic acid], with more than 80%; and `OCc1cccc(Oc2nc3cc(-c4ccc(-c5ccccc5)cc4)c(Cl)cc3[nH]2)c1` [Example 37, [3-(5-Biphenyl-4-yl-6-chloro-1H-benzoimidazol-2-yloxy)-phenyl]-methanol], with more than 80%.
Same read-out and setting: then `O=C(O)c1ccc(Oc2nc3cc(-c4ccc(-c5ccccc5)cc4)c(Cl)cc3[nH]2)cc1` [Example 38, 4-(5-Biphenyl-4-yl-6-chloro-1H-benzoimidazol-2-yloxy)-benzoic acid], with more than 80%; and `O=C(O)c1ccc(Oc2nc3cc(-c4ccc(-c5ccccc5)cc4)c(Cl)cc3[nH]2)cc1Cl` [Example 39, 4-(5-Biphenyl-4-yl-6-chloro-1H-benzoimidazol-2-yloxy)-2-chloro-benzoic acid], with more than 80%; and `O=C(O)Cn1nnc(-c2cccc(Oc3nc4cc(-c5ccc(-c6ccccc6)cc5)c(Cl)cc4[nH]3)c2)n1` [Example 40, {5-[3-(5-Biphenyl-4-yl-6-chloro-1H-benzoimidazol-2-yloxy)-phenyl]-tetrazol-2-yl}-acetic acid], with more than 80%.
Still for that read-out and setting: then `COC(=O)Cn1nnc(-c2cccc(Oc3nc4cc(-c5ccc(-c6ccccc6)cc5)c(Cl)cc4[nH]3)c2)n1` [Example 41, {5-[3-(5-Biphenyl-4-yl-6-chloro-1H-benzoimidazol-2-yloxy)-phenyl]-tetrazol-2-yl}-acetic acid methyl ester], with more than 80%.
Consider `N#Cc1cccc(Oc2nc3cc(-c4ccc(-c5ccccc5)cc4)c(Cl)cc3[nH]2)c1` [Example 42, 3-(5-Biphenyl-4-yl-6-chloro-1H-benzoimidazol-2-yloxy)-benzonitrile], for which the Emax under setting [1] is more than 80%.
For the compound `Cc1ccc(C#Cc2cc3nc(Oc4ccc(C)c(C(=O)O)c4)[nH]c3cc2Cl)cc1` [Example 45, 5-(6-Chloro-5-p-tolyethylnyl-1H-benzoimidazol-2-yloxy)-2-methyl-benzoic acid], the Emax under setting [1] was more than 80%.
On the same count and under the same terms, then `O=c1[nH]nc(-c2cccc(Oc3nc4cc(-c5ccc(-c6ccccc6)cc5)c(Cl)cc4[nH]3)c2)o1` [Example 47, 5-[3-(5-Biphenyl-4-yl-6-chloro-1H-benzoimidazol-2-yloxy)-phenyl]-3H-[1,3,4]oxadiazol-2-one], with more than 80%; and `O=C(O)c1cc(Oc2nc3cc(C#Cc4ccccc4)c(Cl)cc3[nH]2)cc(C(=O)O)c1` [Example 48, 5-(6-Chloro-5-phenylethynyl-1H-benzoimidazol-2-yloxy)-isophthalic acid], with more than 80%; and `COC(=O)c1cc(Oc2nc3cc(C#Cc4ccccc4)c(Cl)cc3[nH]2)cc(C(=O)OC)c1` [Example 49, 5-(6-Chloro-5-phenylethynyl-1H-benzoimidazol-2-yloxy)-isophthalic acid dimethyl ester], with more than 80%.
On to `Cc1cc(Oc2nc3cc(-c4ccc(-c5ccccc5)cc4)c(Cl)cc3[nH]2)cc(C(=O)O)c1` [Example 50, 3-(5-Biphenyl-4-yl-6-chloro-1H-benzoimidazol-2-yloxy)-5-methyl-benzoic acid], for which the Emax under setting [1] is more than 80%.
On the same count and under the same terms, the result for `Cc1ccc(Oc2nc3cc(CCc4ccccc4)c(Cl)cc3[nH]2)cc1C(=O)O` [Example 51, 5-(6-Chloro-5-phenethyl-1H-benzoimidazol-2-yloxy)-2-methyl-benzoic acid] reads more than 80%; that for `O=C(O)c1cccc(Nc2nc3cc(-c4ccc(-c5ccccc5O)cc4)c(Cl)cc3[nH]2)c1` [Example 52, 3-[6-Chloro-5-(2′-hydroxy-biphenyl-4-yl)-1H-benzoimidazol-2-ylamino]-benzoic acid], more than 80%; that for `Cc1cc(Oc2nc3cc(-c4ccc(-c5ccccc5O)cc4)c(Cl)cc3[nH]2)cc(C(=O)O)c1` [Example 53, 3-[6-Chloro-5-(2′-hydroxy-biphenyl-4-yl)-1H-benzoimidazol-2-yloxy]-5-methyl-benzoic acid], more than 80%.
Same read-out and setting: the result for `O=C(O)c1cc(Oc2nc3cc(-c4ccc(-c5ccccc5O)cc4)c(Cl)cc3[nH]2)cc(C(=O)O)c1` [Example 54, 5-[6-Chloro-5-(2′-hydroxy-biphenyl-4-yl)-1H-benzoimidazol-2-yloxy]-isophthalic acid] reads more than 80%.
For the compound `O=C(O)Cn1nnnc1Sc1nc2cc(-c3ccc(-c4ccccc4)cc3)c(Cl)cc2[nH]1` [Example 55, [5-(5-biphenyl-4-yl-6-chloro-1H-benzo-imidazol-2-ylsulfanyl)-tetrazol-1-yl]-acid, ammonium salt], under setting [2], the Emax is more than 80%.
The same measure, in the same setting: then `O=C(O)c1cccc(Oc2nc3cc(-c4ccc(-c5ccccc5)cc4)c(Cl)cc3[nH]2)c1` [Example 56, 3-(5-biphenyl-4-yl-6-chloro-1H-benzo-imidazol-2-yloxy)-benzoic acid, ammonium salt], with more than 80%.
Take `Cc1ccc(Oc2nc3cc(-c4cnn(C)c4)c(Cl)cc3[nH]2)cc1C(=O)O` [Example 57, 5-[6-Chloro-5-(1-methyl-1H-pyrazol-4-yl)-1H-benzoimidazol-2-yloxy]-2-methyl-benzoic acid]: the Emax under setting [1] is more than 80%.
The same measure, in the same setting: then `Cc1ccc(Oc2nc3cc(-c4ccc(-n5cccn5)cc4)c(Cl)cc3[nH]2)cc1C(=O)O` [Example 58, 5-[6-Chloro-5-(4-pyrazol-1-yl-phenyl)-1H-benzoimidazol-2-yloxy]-2-methyl-benzoic acid], with more than 80%.
Take `O=C(O)c1cc(Oc2nc3cc(-c4ccccc4O)c(Cl)cc3[nH]2)ccc1Cl` [Example 59, 2-Chloro-5-[6-chloro-5-(2-hydroxy-phenyl)-1H-benzoimidazol-2-yloxy]-benzoic acid]: the Emax under setting [1] was more than 80%.
For the compound `O=C(O)c1cc(Oc2nc3cc(-c4ccc(CO)cc4)c(Cl)cc3[nH]2)ccc1Cl` [Example 60, 2-Chloro-5-[6-chloro-5-(4-hydroxymethyl-phenyl)-1H-benzoimidazol-2-yloxy]-benzoic acid], the Emax under setting [1] is more than 80%.
Turning to `O=C(O)c1cc(Oc2nc3cc(-c4ccccc4)c(Cl)cc3[nH]2)ccc1Cl` [Example 61, 2-Chloro-5-(6-chloro-5-phenyl-1H-benzoimidazol-2-yloxy)-benzoic acid], the Emax under setting [1] was more than 80%.
Same read-out and setting: the result for `O=C(O)c1cccc(Sc2nc3cc(-c4ccc(-c5ccccc5)cc4)c(Cl)cc3[nH]2)c1` [Example 64, 3-[(5-biphenyl-4-yl-6-chloro-1H-benizmidazol-2-yl)thio]benzoic acid] reads more than 80%.
The same measure, in the same setting: the result for `O=C(O)c1cccc(Sc2nc3cc(-c4cccs4)c(Cl)cc3[nH]2)c1` [Example 65, 3-{[6-chloro-5-(2-thienyl)-1H-benzimidazol-2-yl]thio}benzoic acid] reads more than 80%; that for `Cc1ccc(Oc2nc3cc(-c4ccc5ccccc5c4)c(Cl)cc3[nH]2)cc1C(=O)O` [Example 66, 5-{[6-chloro-5-(2-naphthyl)-1H-benzimidazol-2-yl]oxy}-2-methylbenzoic acid], more than 80%.
One may read the EC50 as the midpoint of the concentration-response curve. As for `Cc1ccc(Oc2nc3cc(C#Cc4ccccc4F)c(Cl)cc3[nH]2)cc1C(=O)O` [Example 67, 5({6-chloro-5-[(2-fluorophenyl)ethynyl]-1H-benzimidazol-2-yl}oxy)-2-methylbenzoic acid], the concentration giving a half-maximal response (EC50) under setting [3] is 3 nM.
With `Cc1ccc(Oc2nc3cc(-c4ccc(-c5ccc(=O)n(C)c5)cc4)c(Cl)cc3[nH]2)cc1C(=O)O` [Example 68, 5-({6-chloro-5-[4-(1-methyl-6-oxo-1,6-dihydropyridin-3-yl)phenyl]-1H-benzimidazol-2-yl}oxy)-2-methylbenzoic acid], under setting [3], the concentration giving a half-maximal response (EC50) came to 7 nM.
Regarding `Cc1ccc(Oc2nc3cc(C#Cc4ccc(CCO)cc4)c(Cl)cc3[nH]2)cc1C(=O)O` [Example 69, 5-{6-chloro-5-[4-(2-hydroxy-ethyl)-phenylethynyl]-1H-benzoimidazol-2-yloxy}-2-methyl-benzoic acid], under setting [1], the Emax was more than 80%.
Still for that read-out and setting: then `Cc1ccc(Oc2nc3cc(C#Cc4ccc(-c5cccnc5)cc4)c(Cl)cc3[nH]2)cc1C(=O)O` [Example 70, 5-[6-Chloro-5-(4-pyridin-3-yl-phenylethynyl)-1H-benzoimidazol-2-yloxy]-2-methyl-benzoic acid], with more than 80%.
